# Measured values from ChEMBL document CHEMBL5036375, “Malaria Box-Inspired Discovery of N-Aminoalkyl-β-carboline-3-carboxamides, a Novel Orally Active Class of Antimalarials” (ACS Med Chem Lett, 2022).
# Active and inactive are the calls of the source. The calls are words filed in the database; no cut-off is given here.
# Tests used:
# [1] = system: Plasmodium falciparum; test: Antimalarial activity against synchronized Plasmodium falciparum Dd2 (MRA-150) infected in human O-postive erythrocytes assessed as reduction in parasite growth after 72 hrs by SYBR green I staining based fluorescence assay; format: functional, organism-based
# [2] = system: Plasmodium berghei; test: Antimalarial activity against Plasmodium berghei ANKA expressing luciferase, PbGFP-Luccon infected in mouse assessed as reduction in parasitemia at 40 mg/kg, po measured after 4 days by luminescence assay; format: functional, organism-based; conditions: time 4.0 day
# [3] = system: Plasmodium falciparum; test: Antimalarial activity against Plasmodium falciparum 3D7A incubated for 48 hrs by [3H]-hypoxanthine incorporation assay; format: functional, organism-based; conditions: 3D7
# [4] = system: Plasmodium falciparum; test: Antimalarial activity against Plasmodium falciparum 3D7 (MRA-102) infected in human O-postive erythrocytes measured after 72 hrs by SYBR green I staining based fluorescence assay; format: functional, organism-based; conditions: 3D7 MRA-102, 72 h
# [5] = Toxicity in mouse infected with Plasmodium berghei ANKA assessed as behavioural changes at 40 mg/kg, po measured after 4 days; format: organism-based; conditions: in vivo, 96 h, time 4 day
# [6] = Toxicity in mouse infected with Plasmodium berghei ANKA assessed as gait at 40 mg/kg, po measured after 4 days; format: organism-based; conditions: in vivo, 96 h, time 4 day
# [7] = Oral bioavailability in rat at 40 mg/kg; format: ADME, organism-based; conditions: in vivo
# [8] = system: Escherichia coli; test: Antibacterial activity against Escherichia coli (BL21) assessed as bacterial growth after 18 hrs by g a cell density meter; format: functional
# [9] = system: Plasmodium falciparum; test: Antimalarial activity against Plasmodium falciparum W2 infected in human O-postive erythrocytes measured after 72 hrs by SYBR green I staining based fluorescence assay; format: functional, organism-based; conditions: W2, 72 h
# [10] = Half life in CD-1 mouse liver microsomes after 60 mins by LC-MS analysis; format: ADME, Microsome
# [11] = Cmax in rat at 40 mg/kg, po; format: ADME, organism-based; design: route oral, dose 40 mg/kg; conditions: in vivo
# [12] = system: HEK293; test: Cytotoxicity against human HEK293 cells by resazurin based cell viability assay; format: functional
# [13] = Half life in rat plasma 40 mg/kg, po; format: ADME, organism-based
# [14] = system: Plasmodium berghei; test: Antimalarial activity against Plasmodium berghei ANKA expressing luciferase, PbGFP-Luccon infected in mouse assessed as reduction in parasitemia at 20 mg/kg, po measured after 4 days by luminescence assay; format: functional, organism-based; conditions: time 4.0 day
# [15] = Lipophilicity, logD of the compound between 1-octanol and PBS pH 7.4 at 10 mM by LC-MS analysis; format: physicochemical; conditions: 1-octanol/PBS
# [16] = system: Plasmodium falciparum; test: Antimalarial activity against synchronized Plasmodium falciparum Dd2 (MRA-150) infected in human O-postive erythrocytes in presence of IPP assessed as reduction in parasite growth at 2.5 uM measured after 72 hrs by SYBR green I staining based fluorescence assay relative to control; format: functional; design: scale not given: the % may be the effect or the level left
# [17] = Toxicity in mouse infected with Plasmodium berghei ANKA assessed as ruffled fur at 40 mg/kg, po measured after 4 days; format: organism-based; conditions: in vivo, 96 h, time 4 day
# [18] = Stability in CD-1 mouse plasma at 1 hour by LC-MS analysis a; format: ADME, cell-free; conditions: read-out: Stability
# [19] = system: Plasmodium falciparum; test: Antimalarial activity against Plasmodium falciparum 4G infected in human O-postive erythrocytes measured after 72 hrs by SYBR green I staining based fluorescence assay; format: functional, organism-based
# [20] = system: Hepatocyte; test: Cytotoxicity against human hepatocytes measured after 96 hrs by DAPI staining based fluroscence assay; format: functional
# [21] = Toxicity in mouse infected with Plasmodium berghei ANKA assessed as weight loss at 40 mg/kg, po measured after 4 days; format: organism-based; conditions: in vivo, 96 h, time 4 day
# [22] = Thermodynamic solubility of PBS at pH 7.4 by LC-MS analysis; format: physicochemical; conditions: read-out: Therm_solubility
# [23] = Toxicity in mouse infected with Plasmodium berghei ANKA assessed as lethargy at 40 mg/kg, po measured after 4 days; format: organism-based; conditions: in vivo, 96 h, time 4 day
# [24] = Volume of distribution in rat at 10 mg/kg , iv; format: ADME, organism-based; conditions: in vivo
# [25] = system: Plasmodium falciparum; test: Antimalarial activity against KAE609 resistant Plasmodium falciparum Dd2 infected in human O-postive erythrocytes measured after 72 hrs by SYBR green I staining based fluorescence assay; format: functional, organism-based; conditions: Dd2, 72 h
# [26] = system: Plasmodium falciparum; test: Antimalarial activity against Plasmodium falciparum 3D7 (MRA-102) incubated for 72 hrs by Lactate dehydrogenase activity; format: functional, organism-based; conditions: 3D7 MRA-102, 72 h
# [27] = molecular target: Voltage-gated inwardly rectifying potassium channel KCNH2 (Homo sapiens, UniProt Q12809); test: Inhibition of human ERG expressed in HEK-293 cells by patch clamp method; format: cell-based, HEK293
# Voltage-gated inwardly rectifying potassium channel KCNH2, sequence (Q12809 whole entry): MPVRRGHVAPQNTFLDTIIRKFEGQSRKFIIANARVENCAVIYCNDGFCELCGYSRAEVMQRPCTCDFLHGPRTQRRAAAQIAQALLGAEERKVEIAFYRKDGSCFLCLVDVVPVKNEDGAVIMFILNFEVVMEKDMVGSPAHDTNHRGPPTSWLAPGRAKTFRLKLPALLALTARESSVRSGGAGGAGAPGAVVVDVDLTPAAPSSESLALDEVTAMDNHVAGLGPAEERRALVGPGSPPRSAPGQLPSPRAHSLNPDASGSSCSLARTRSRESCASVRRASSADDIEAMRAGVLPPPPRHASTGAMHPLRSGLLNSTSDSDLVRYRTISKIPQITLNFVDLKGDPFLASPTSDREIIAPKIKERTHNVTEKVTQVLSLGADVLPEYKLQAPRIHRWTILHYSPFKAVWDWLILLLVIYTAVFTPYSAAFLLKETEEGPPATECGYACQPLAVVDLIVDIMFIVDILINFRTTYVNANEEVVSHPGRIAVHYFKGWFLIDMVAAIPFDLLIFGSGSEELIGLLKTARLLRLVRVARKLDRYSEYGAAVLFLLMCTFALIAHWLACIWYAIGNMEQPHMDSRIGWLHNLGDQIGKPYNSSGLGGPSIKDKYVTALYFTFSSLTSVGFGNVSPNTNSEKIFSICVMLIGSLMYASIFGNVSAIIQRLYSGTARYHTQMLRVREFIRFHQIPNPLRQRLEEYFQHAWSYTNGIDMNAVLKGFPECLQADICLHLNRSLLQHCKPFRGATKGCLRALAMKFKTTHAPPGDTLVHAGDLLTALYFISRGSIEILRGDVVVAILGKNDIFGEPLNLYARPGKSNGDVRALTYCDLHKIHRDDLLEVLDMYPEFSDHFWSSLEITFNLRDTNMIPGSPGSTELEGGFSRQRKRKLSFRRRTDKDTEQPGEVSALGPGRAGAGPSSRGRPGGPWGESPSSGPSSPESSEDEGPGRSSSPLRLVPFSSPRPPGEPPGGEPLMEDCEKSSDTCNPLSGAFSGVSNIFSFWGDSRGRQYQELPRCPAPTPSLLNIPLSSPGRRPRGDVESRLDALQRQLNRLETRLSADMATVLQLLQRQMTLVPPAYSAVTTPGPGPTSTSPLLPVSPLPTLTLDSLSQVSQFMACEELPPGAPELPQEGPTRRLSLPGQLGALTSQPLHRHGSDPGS
# [28] = system: Plasmodium falciparum; test: Antimalarial activity against synchronized Plasmodium falciparum Dd2 (MRA-150) infected in human O-postive erythrocytes in presence of IPP assessed as reduction in parasite growth at 5 uM measured after 72 hrs by SYBR green I staining based fluorescence assay relative to control; format: functional; design: scale not given: the % may be the effect or the level left
smiles,measurement,setting,value
CNCCNC(=O)[C@@H]1Cc2c([nH]c3c(C)cccc23)[C@H](c2ccc(Cl)cc2Cl)N1,EC50,[1],1300 nM
CNCCNC(=O)[C@H]1Cc2c([nH]c3c(C)cccc23)[C@@H](c2ccc(Cl)cc2Cl)N1,EC50,[1],1430 nM
Cc1cccc2c1[nH]c1c(-c3ccc(Cl)c(Cl)c3)nc(C(=O)NCCN)cc12,EC50,[1],263 nM
CCN(CC)CCCC(C)Nc1ccnc2cc(Cl)ccc12 (configuration not stated),Activity,[2],Active
CNC(=O)c1cc2c([nH]c3c(C)cccc32)c(-c2ccc(Cl)c(Cl)c2)n1,EC50,[1],> 10000 nM
Cc1cccc2c1[nH]c1c(-c3ccc(Cl)c(Cl)c3)nc(C(=O)NCCO)cc12,EC50,[1],3270 nM
CNCCNC(=O)c1cc2c([nH]c3c(C)cccc32)c(-c2ccc(Cl)c(Cl)c2)n1.Cl,IC50,[3],70 nM
same,EC50,[4],53 nM
same,Activity,[5],Non-Toxic
same,Activity,[2],Active
same,Activity,[6],Non-Toxic
same,bioavailability,[7],40%
same,MIC,[8],> 250 µM
same,EC50,[9],100 nM
same,half-life,[10],1.83 h
same,Cmax,[11],800 nM
same,CC50,[12],32000 nM
same,half-life,[13],8 h
same,Activity,[14],inactive
same,EC50,[1],108 nM
same,logD at 10000 µM,[15],3.3
same,Activity,[16],0%
same,Activity,[17],Non-Toxic
same,remaining at 1 h,[18],100%
same,EC50,[19],110 nM
same,CC50,[20],8500 nM
same,Activity,[21],Non-Toxic
same,solubility thermodynamic,[22],9.5 µM
same,Activity,[23],Non-Toxic
same,Vd,[24],21.8 L/kg
same,EC50,[25],101 nM
same,IC50,[26],117 nM
same,IC50,[27],510 nM
CCCCNC(=O)c1cc2c([nH]c3c(C)cccc32)c(-c2ccc(Cl)c(Cl)c2)n1,EC50,[1],1020 nM
CNCCNC(=O)c1cc2c([nH]c3c(C)cccc32)c(-c2ccccc2)n1,EC50,[1],4000 nM
CNCCNC(=O)c1cc2c([nH]c3c(C)cccc32)c(-c2ccc(Cl)cc2Cl)n1,EC50,[1],583 nM
CNCCNC(=O)c1cc2c([nH]c3ccccc32)c(-c2cccc(Cl)c2)n1,EC50,[1],641 nM
CNCCNC(=O)[C@H]1Cc2c([nH]c3c(C)cccc23)[C@H](c2ccc(Cl)cc2Cl)N1,EC50,[1],3690 nM
CNCCNC(=O)c1cc2c([nH]c3ccccc32)c(-c2ccc(Cl)cc2)n1,EC50,[1],496 nM
CNCCNC(=O)[C@@H]1Cc2c([nH]c3c(C)cccc23)[C@@H](c2ccc(Cl)cc2Cl)N1,EC50,[1],1950 nM
same,Activity,[28],50%
Cc1cccc2c1[nH]c1c(-c3ccc(Cl)c(Cl)c3)nc(C(=O)NCCN(C)C)cc12,EC50,[1],264 nM
CNCCNC(=O)c1cc2c([nH]c3c(C)cccc32)c(-c2cccc(Cl)c2)n1,EC50,[1],342 nM
CNCCNC(=O)c1cc2c([nH]c3c(C)cccc32)c(-c2ccc(Cl)cc2)n1,EC50,[1],274 nM
O=C(O)[C@@H]1Cc2c([nH]c3ccccc23)[C@@H](c2ccc(Cl)cc2Cl)N1,Activity,[16],100%
CNCCNC(=O)c1cc2c([nH]c3ccccc32)c(-c2ccc(Cl)c(Cl)c2)n1,EC50,[1],277 nM
CNCCNC(=O)c1cc2c([nH]c3ccccc32)c(-c2ccccc2)n1,EC50,[1],2500 nM
COC(=O)c1cc2c([nH]c3c(C)cccc32)c(-c2ccc(Cl)c(Cl)c2)n1,EC50,[1],> 10000 nM
CNCCCNC(=O)c1cc2c([nH]c3c(C)cccc32)c(-c2ccc(Cl)c(Cl)c2)n1,EC50,[1],217 nM
Cc1cccc2c1[nH]c1c(-c3ccc(Cl)c(Cl)c3)nc(C(=O)NCCCN(C)C)cc12,EC50,[1],240 nM
Cc1cccc2c1[nH]c1c(-c3ccc(Cl)c(Cl)c3)nc(C(=O)O)cc12,EC50,[1],> 10000 nM
Cc1cccc2c1[nH]c1c(-c3ccc(Cl)c(Cl)c3)nc(C(=O)NCCCN)cc12,EC50,[1],726 nM
